“Also recorded” adds a separate entry of the source.
Assays:
[1] = tested on: ERCC1, XPD, XRCC1; assay: ERCC1, XPD, XRCC1 mRNA / protein levels in A2780-CP70 cells; assay type: cell-based, human; conditions: A2780-CP70
[2] = tested on: OPN, MMP9, Cathepsin K (CTSK); assay: OPN, MMP9 and CTSK expression by osteoclasts; assay type: cell-based, murine; conditions: DM supplemented with cyclopamine
Description: Quantitative RT-PCR (qRT-PCR)-cDNA was generated using High Capacity Reverse Transcriptase Kit (Applied Biosystems, Foster City, Calif.). […] All reactions were done in triplicate.

[3] = tested on: OPN; assay: Secreted OPN protein, immunoblot of conditioned medium, MDA-MB-435; assay type: cell-based, human; conditions: 10 μM and 20 μM cyclopamine
Protocol: Stable vector only and non-targeting (scrambled control) transfectants were also generated. Stable transfectants were selected on medium supplemented with 500 μg/ml Geneticin (Invitrogen). The four GLI1-knocked down clones chosen were based on the extent of GLI1 knockdown and were termed KO1, KO2, KO3, and KO4. The expression of OPN was restored in the KO1 cells by transfecting with pcDNA3.1-OPN. A corresponding vector-only transfectant was also generated. Transfectants were selected on medium containing Geneticin (500 μg/ml) and hygromycin (750 μg/ml). Serum-free conditioned medium harvested from approximately 3.0×10^6 cells after 24 hr was assayed for OPN by immunoblotting.
Western Blotting Analysis—Whole cell lysates were collected in Nonidet P-40 buffer (150 mM NaCl, 50 mM Tris, 1% Nonidet P-40). Isolation of cytosolic and nuclear fractions was done as previously reported (15). Total protein (30 μg) was resolved by SDS-PAGE gel and transferred to polyvinylidene difluoride membranes. […] Secreted OPN was assessed by loading an equal quantity of protein from the serum-free conditioned medium. […]

[4] = tested on: OPN; assay: OPN expression in pre-osteoclastic RAW264.7 cells; assay type: cell-based, murine
Protocol: Western Blotting Analysis—Whole cell lysates were collected in NP-40 buffer (150 mM NaCl, 50 mM Tris, 1% NP-40). Total protein (30 μg) was resolved by SDS-PAGE gel and transferred to PVDF membranes. Membranes were immunoblotted overnight at 4° C. with antibodies to either SHH (Santacruz, Calif., USA) or IHH (Santacruz). Equal loading was confirmed with anti-β-tubulin (Cell Signaling, Danvers, Mass.). To assess OPN expression upon SHH treatment, […] were grown in 6-well plates in the presence of SHH. After 24 hours the cells were lysed in NP-40 buffer and 30 μg of each experimental group assessed by immunoblotting. To assess for the expression of OPN, MMP9 and CTSK, at the end of Day 6 of differentiation, all the different experimental groups were kept in serum free medium for 24 hrs and both, the conditioned media and whole cell lysates were collected and immunoblotted using antibodies to either anti-mouse OPN (Millipore, Bedford, Mass.), or CTSK (SantaCruz Biotech). Equal loading was confirmed with anti-β-actin (Sigma) antibody. Secreted MMP9 (Santa Cruz Biotech) was assessed by loading equal quantity of protein from the serum-free conditioned medium. […] Detection and quantification of proteins was done using Fuji LAS 3000 apparatus and Multigauge V3.1 software (Fujifilm, Valhalla, N.Y.). Band intensities were measured in arbitrary Units (AU). […]
Luciferase Assay—Cells were co-transfected with the OPN promoter construct, pGL3-OPNB and pSV-β-galactosidase (Promega) (Das, S., et al. (2009) J Biol Chem 284, 22888-22897). […] Readings were normalized to β-galactosidase. […]
Quantitative RT-PCR (qRT-PCR)-cDNA was generated using High Capacity Reverse Transcriptase Kit (Applied Biosystems, Foster City, Calif.). […] Following the experimental regime as described herein (for Osteoclast differentiation/activity) RNA was isolated using Trizol (Invitrogen) and assessed as describere herein. […]

| Molecule | ERCC1, XPD, XRCC1 mRNA upregulation over baseline ([1]; IC50 cyclopamine 24 hours, then 30 μM cisplatin 1 hour (data not shown)) | time of highest ERCC1, XPD, XRCC1 mRNA levels after cisplatin exposure ([1]; cyclopamine pretreatment vs cisplatin alone) | ERCC1, XPD, XRCC1 mRNA levels after agent alone ([1]; levels associated with 50% cell killing, 6-72 hr) | expression of OPN, MMP9 and CTSK by the osteoclasts [2] | OPN protein in the secretome [3] | OPN protein levels ([4]; 24 hours post SHH) | OPN promoter activity ([4]; 24 hours post-SHH) | OPN mRNA levels ([4]; recombinant SHH) |
| --- | --- | --- | --- | --- | --- | --- | --- | --- |
| CC1=C2C[C@H]3[C@@H](CC=C4C[C@@H](O)CC[C@@]43C)[C@@H]2CC[C@]12O[C@@H]1C[C@H](C)CN[C@H]1[C@H]2C [cyclopamine] | approximately 2 fold | 24 h | no increase; also recorded: no detected effect | significantly reduces the expression of OPN, MMP9 and CTSK | decreased levels of OPN protein | – | – | – |
| SHH: recombinant Sonic hedgehog ligand (R & D Systems) | – | – | – | – | – | increased protein levels of OPN | increase in the activity of the OPN promoter | dose-dependent significant (p<0.0001) increase in OPN mRNA levels |

Source: patent US9464291B2, “Methods and compositions for the treatment of cancer” (University of South Alabama, priority 2012, dated 2016)
